Measurements reported in ChEMBL document CHEMBL5537119 (Eur J Med Chem, 2024).

Key:
Histone deacetylase 8 = biological target: T1, Histone deacetylase 8 (Homo sapiens, UniProt Q9BY41); assay: Inhibition of human recombinant HDAC8 using Boc-Lys-(Tfa)-AMC as substrate preincubated for 5 mins followed by substrate addition and measured after 90 mins by fluorescence based microplate reader analysis
T1 sequence (Q9BY41 whole entry): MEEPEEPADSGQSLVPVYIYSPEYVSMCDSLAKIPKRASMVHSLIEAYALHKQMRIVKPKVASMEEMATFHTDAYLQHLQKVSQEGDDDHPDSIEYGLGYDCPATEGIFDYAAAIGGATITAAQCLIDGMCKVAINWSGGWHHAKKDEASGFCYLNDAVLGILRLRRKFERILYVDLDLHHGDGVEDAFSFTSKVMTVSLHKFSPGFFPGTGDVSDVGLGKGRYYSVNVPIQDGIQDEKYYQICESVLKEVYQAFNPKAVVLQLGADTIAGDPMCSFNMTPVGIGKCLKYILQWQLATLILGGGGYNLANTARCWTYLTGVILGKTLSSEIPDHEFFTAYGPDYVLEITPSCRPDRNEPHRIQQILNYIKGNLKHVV

Histone deacetylase 7 = biological target: T2, Histone deacetylase 7 (Homo sapiens, UniProt Q8WUI4); assay: Inhibition of HDAC7 (unknown origin)
T2 sequence (Q8WUI4 whole entry): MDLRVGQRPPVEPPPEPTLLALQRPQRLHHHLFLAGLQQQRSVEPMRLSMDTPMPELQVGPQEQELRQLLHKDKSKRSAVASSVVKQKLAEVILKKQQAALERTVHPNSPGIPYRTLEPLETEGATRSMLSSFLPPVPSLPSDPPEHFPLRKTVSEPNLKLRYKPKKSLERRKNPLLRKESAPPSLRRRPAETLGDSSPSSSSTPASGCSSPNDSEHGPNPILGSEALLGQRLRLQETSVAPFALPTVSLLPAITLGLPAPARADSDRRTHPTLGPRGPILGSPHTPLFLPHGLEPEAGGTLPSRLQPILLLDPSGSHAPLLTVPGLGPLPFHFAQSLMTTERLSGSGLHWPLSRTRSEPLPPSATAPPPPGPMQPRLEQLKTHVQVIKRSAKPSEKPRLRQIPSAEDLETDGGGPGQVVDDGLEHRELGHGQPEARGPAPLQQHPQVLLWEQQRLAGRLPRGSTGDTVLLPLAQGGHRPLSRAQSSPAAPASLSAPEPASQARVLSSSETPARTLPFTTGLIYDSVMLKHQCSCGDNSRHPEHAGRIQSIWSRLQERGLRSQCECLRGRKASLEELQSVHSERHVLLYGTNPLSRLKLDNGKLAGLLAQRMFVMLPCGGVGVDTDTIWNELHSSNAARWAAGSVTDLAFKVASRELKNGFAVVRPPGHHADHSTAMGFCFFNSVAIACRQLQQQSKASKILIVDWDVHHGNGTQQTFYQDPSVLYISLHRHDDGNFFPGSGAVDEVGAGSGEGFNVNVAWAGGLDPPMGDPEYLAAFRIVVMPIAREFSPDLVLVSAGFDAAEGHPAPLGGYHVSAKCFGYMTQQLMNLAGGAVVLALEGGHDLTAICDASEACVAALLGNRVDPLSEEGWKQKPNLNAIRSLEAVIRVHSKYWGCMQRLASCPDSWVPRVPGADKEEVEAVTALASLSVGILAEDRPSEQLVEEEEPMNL

Work on `O=C(NOCc1coc(-c2ccccc2)n1)c1ccc(-c2noc(C(F)(F)F)n2)cc1` yielded an IC50 (Histone deacetylase 8) greater than 100 µM and an IC50 (Histone deacetylase 7) of 1.97 µM.
